Data on 19 compounds can be found in patent publication US8414950B2, “High-purity rebaudioside D and low-calorie table top tablet containing the same” (PureCircle Sdn Bhd, priority 2009, dated 2013).

“Also recorded” adds a separate entry of the source. Where a SMILES comes first, the peptide text is derived from it.

For data set [1] the following is noted: cited from earlier work; for Sweetness power: standard sweetening power, saccharose = 1; for Relative sweetness: Table 2, relative to sucrose; for Sweetness potency, times higher than sucrose: related art.
The conditions of data set [2]: Table 2 and related-art text; cited from earlier work.
For data set [3] the following is noted: Table 2; cited from earlier work.
Data set [4] in a line: Solubility in organic solvents. It is filed as physicochemical. The text has this:
Soluble in diluted solutions of methanol, ethanol, n-propanol, and isopropanol.
Insoluble in acetone, benzene, chloroform, and ether.

A short description of data set [5]: Solubility in water. It is filed as physicochemical. Particulars: high purity Rebaudioside D of the invention; increases with temperature. From the text:
Solubility in water is around 0.2% which is increasing with increase in temperature. It precipitates again upon cooling the solution. Highly soluble during chromatographic separation stage and before crystallizing.

Data set [6] can be described thus: Sweetness power / relative sweetness compared with sucrose. Particulars: high purity Rebaudioside D of the invention, compared to 10% sucrose solution.
Data set [7] in a line: Quality of taste (sensory attributes). The text has this: Rebaudioside D is isolated and extracted, along with other steviol glycosides, from the Stevia rebaudiana Bertoni plant (“Stevia”), which is commercially cultivated in Japan, Taiwan, Malaysia, South Korea, China, Israel, India, Brazil, Australia, and Paraguay.
Data set [8] can be described thus: Heat and pH stability. It is filed as physicochemical.

On to `OC[C@H]1O[C@H](O[C@]2(CCl)O[C@H](CCl)[C@@H](O)[C@@H]2O)[C@H](O)[C@@H](O)[C@H]1Cl` [Sucralose], for which, in data set [1], the Sweetness power is listed as 600.
In the case of `C=C1C[C@@]23CC[C@H]4[C@@](C)(CCC[C@@]4(C)C(=O)O[C@@H]4O[C@H](CO)[C@@H](O)[C@H](O)[C@H]4O)[C@@H]2CC[C@]1(O[C@@H]1O[C@H](CO)[C@@H](O)[C@H](O)[C@H]1O)C3` [Rubusoside], the Relative sweetness in data set [1] is listed as 110. Moreover, in data set [2], the Quality of taste entry is “Very bitter”.
Consider `C=C1C[C@@]23CC[C@H]4[C@@](C)(CCC[C@@]4(C)C(=O)O[C@@H]4O[C@H](CO)[C@@H](O)[C@H](O)[C@H]4O[C@@H]4O[C@H](CO)[C@@H](O)[C@H](O)[C@H]4O)[C@@H]2CC[C@]1(O[C@@H]1O[C@H](CO)[C@@H](O)[C@H](O)[C@H]1O[C@@H]1O[C@H](CO)[C@@H](O)[C@H](O)[C@H]1O)C3` [Rebaudioside E], for which, in data set [3], the “Solubility in water, %” value is given as 1.70%. Moreover, the Relative sweetness in data set [1] is on record as 170. Also, the Quality of taste result in data set [2] was “Like sucrose”.
Regarding `C=C1C[C@@]23CC[C@H]4[C@@](C)(CCC[C@@]4(C)C(=O)O[C@@H]4O[C@H](CO)[C@@H](O)[C@H](O)[C@H]4O)[C@@H]2CC[C@]1(O[C@@H]1O[C@H](CO)[C@@H](O)[C@H](O[C@@H]2O[C@H](CO)[C@@H](O)[C@H](O)[C@H]2O)[C@H]1O[C@@H]1O[C@H](CO)[C@@H](O)[C@H](O)[C@H]1O)C3` [Rebaudioside A], the “Solubility in water, %” value in data set [3] was 0.80%. Further, in data set [1], the Relative sweetness is listed as 200-400 and the Sweetness power was 450. For the same compound, the Quality of taste entry in data set [2] is “most favorable sensory attributes of the four major steviol glycosides; also recorded: Less Bitter”.
On to `OC[C@H]1O[C@@](CO)(O[C@H]2O[C@H](CO)[C@@H](O)[C@H](O)[C@H]2O)[C@@H](O)[C@@H]1O` [Saccharose], for which the Sweetness power in data set [1] is on record as 1.
Take `C=C1C[C@@]23CC[C@H]4[C@@](C)(CCC[C@@]4(C)C(=O)O[C@@H]4O[C@H](CO)[C@@H](O)[C@H](O)[C@H]4O)[C@@H]2CC[C@]1(O[C@@H]1O[C@H](CO)[C@@H](O)[C@H](O)[C@H]1O[C@@H]1O[C@H](CO)[C@@H](O)[C@H](O)[C@H]1O)C3` [Stevioside]: the “Solubility in water, %” value in data set [3] is recorded as 0.13%. Besides, in data set [1], the Relative sweetness was 210; the “Sweetness potency, times higher than sucrose” value (from here on “Sweetness potency”) is on record as “around 210 times”; the Sweetness power is on record as 200. Also, in data set [2], the Quality of taste entry is reported as “Bitter”.
On to `C=C1C[C@@]23CC[C@H]4[C@@](C)(CCC[C@@]4(C)C(=O)O)[C@@H]2CC[C@]1(O[C@@H]1O[C@H](CO)[C@@H](O)[C@H](O)[C@H]1O[C@@H]1O[C@H](CO)[C@@H](O)[C@H](O)[C@H]1O)C3` [Steviolbioside], for which the “Solubility in water, %” value in data set [3] is 0.03%. Besides, the Relative sweetness in data set [1] is reported as 90. For the same compound, the Quality of taste result in data set [2] was “Unpleasant”.
For `C=C1C[C@@]23CC[C@H]4[C@@](C)(CCC[C@@]4(C)C(=O)O)[C@@H]2CC[C@]1(O)C3` [Steviol], the Quality of taste entry in data set [2] was “Very bitter”.
As for Thaumatin, the Sweetness power in data set [1] is on record as 3000.
On to `COc1ccc(CCC(=O)c2c(O)cc(O[C@@H]3O[C@H](CO)[C@@H](O)[C@H](O)[C@H]3O[C@@H]3O[C@@H](C)[C@H](O)[C@@H](O)[C@H]3O)cc2O)cc1O` [NHDC, neohesperidin dihydrochalcone], for which the Sweetness power in data set [1] is 1000.
Regarding `C[C@@H](NC(=O)[C@@H](N)CC(=O)O)C(=O)NC1C(C)(C)SC1(C)C` [Alitame], the Sweetness power in data set [1] was 2000.
As for `C=C1C[C@@]23CC[C@H]4[C@@](C)(CCC[C@@]4(C)C(=O)O[C@@H]4O[C@H](CO)[C@@H](O)[C@H](O)[C@H]4O)[C@@H]2CC[C@]1(O[C@@H]1O[C@H](CO)[C@@H](O)[C@H](O)[C@H]1O[C@@H]1O[C@@H](C)[C@H](O)[C@@H](O)[C@H]1O)C3` [Dulcoside A], the “Solubility in water, %” value in data set [3] was 0.58%. In data set [1], the Relative sweetness is given as 30 and the “Sweetness potency” value is listed as “around 30 times”. In data set [2], the Quality of taste result is recorded as “Very bitter”.
As for `CC1=CC(=O)NS(=O)(=O)O1` [Acesulfame-K], the Sweetness power in data set [1] is 200.
For the compound Rebaudioside C, the “Solubility in water, %” value in data set [3] was 0.21%. In data set [1], the Relative sweetness is 30 and the “Sweetness potency” value is listed as “around 30 times”. Besides, the Quality of taste result in data set [2] is “Bitter”.
Take `CC1(C)[C@@H](O[C@H]2O[C@H](C(=O)O)[C@@H](O)[C@H](O)[C@H]2O[C@@H]2O[C@H](C(=O)O)[C@@H](O)[C@H](O)[C@H]2O)CC[C@]2(C)[C@H]3C(=O)C=C4[C@@H]5C[C@@](C)(C(=O)O)CC[C@]5(C)CC[C@@]4(C)[C@]3(C)CC[C@@H]12` [Glycyrrhizin]: the Sweetness power in data set [1] is listed as 50.
As to Rebaudioside B, the “Solubility in water, %” value in data set [3] is reported as 0.10%. The Relative sweetness in data set [1] is 150. Further, the Quality of taste entry in data set [2] was “Bitter”.
Take `O=C1NS(=O)(=O)c2ccccc21` [Saccharine]: the Sweetness power in data set [1] is reported as 300.
In the case of `C=C1C[C@@]23CC[C@H]4[C@@](C)(CCC[C@@]4(C)C(=O)O[C@@H]4O[C@H](CO)[C@@H](O)[C@H](O)[C@H]4O[C@@H]4O[C@H](CO)[C@@H](O)[C@H](O)[C@H]4O)[C@@H]2CC[C@]1(O[C@@H]1O[C@H](CO)[C@@H](O)[C@H](O[C@@H]2O[C@H](CO)[C@@H](O)[C@H](O)[C@H]2O)[C@H]1O[C@@H]1O[C@H](CO)[C@@H](O)[C@H](O)[C@H]1O)C3` [Rebaudioside D], the “Solubility in non-alcohol organic solvents” value in data set [4] (acetone, benzene, chloroform, and ether) was “Insoluble”. In addition, the “Solubility in diluted alcohols” value in data set [4] (diluted solutions of methanol, ethanol, n-propanol, and isopropanol) was “Soluble”. For the same compound, the Solubility in water result in data set [5] is reported as “around 0.2%”. Further, the “Solubility in water, %” value in data set [3] is 1.00%. Further, in data set [6], the “times sweeter than sugar” value is reported as 180-200 times. The “Bitterness and aftertaste / sensory properties” value was “the least bitter, and with the least persistent aftertaste” in data set [7] (amongst the sweet diterpenoid glycosides of Stevia); “excellent sensory properties” in data set [7] (amongst the sweet diterpenoid glycosides of Stevia; listed as Rebaudioside 1)). For the same compound, the Relative sweetness in data set [1] is 220. In data set [2], the Quality of taste result was “Like sucrose”. Besides, the “Heat and pH stability” value in data set [8] was “heat and pH-stable”.
For the compound `COC(=O)[C@H](Cc1ccccc1)NC(=O)[C@@H](N)CC(=O)O` [Aspartame] (H-Asp-Phe-OMe), in data set [1], the Sweetness power was 200.
